Assay results: article PMC10653547, “Synergistic effect of two antimicrobial peptides, BP203 and MAP-0403 J-2 with conventional antibiotics against colistin-resistant Escherichia coli and Klebsiella pneumoniae clinical isolates” (PLOS ONE, 2023)
Entries after “also recorded” stand apart in the source; their conditions may differ. Where two headings read alike, the source gives them in different places. No end group written: not given here.

What was measured:
[1] = system: E. coli ATCC 25922 and colistin-resistant E. coli clinical isolates
Protocol: (§1) The MICs of BP203 and MAP-0403 J-2 against clinically colistin-resistant E. coli and K. pneumoniae isolates were determined using the broth microdilution method, according to CLSI recommendations. Briefly, the peptides were subjected to serial dilution in cation-adjusted Mueller-Hinton broth (CAMHB) and added to a 96-well microtiter plate (Wuxi NEST Biotechnology, Wuxi, China). Subsequently, bacterial suspensions from freshly mid-log phase cultures were diluted to 10^6 CFU/mL with CAMHB, and introduced to each well containing the peptides.

[2] = system: K. pneumoniae ATCC BAA-1706 and colistin-resistant K. pneumoniae clinical isolates
Protocol: as §1

[3] = system: K. pneumoniae ATCC BAA-1706
Protocol: as §1
The antibacterial activity of BP203 and MAP-0403 J-2 was evaluated concerning their response to temperature, pH, serum, and salt ions using the MIC assay, following the previously mentioned procedure. The MIC values of peptides were determined against E. coli ATCC29522 and K. pneumoniae ATCC BAA-1706. […] For the pH stability assay, both peptides were incubated in buffers with different pH values (100 mM buffers: glycine-HCl buffer (pH 2.0), sodium acetate buffer (pH 4.0), sodium phosphate buffer (pH 6.0), Tris-HCl buffer (pH 8.0), and glycine-NaOH buffer (pH 10.0)) for 1 h at 37°C. […] For serum stability assay, both peptides were exposed to 25% and 50% fetal bovine serum (FBS) for 1 h at 37°C, followed by a heat activation step for 30 min at 60°C. Afterward, the peptide solutions were serially diluted and MIC was subsequently determined. For the salt stability assay, each peptide was treated in MHB supplemented with different salts at their physiological concentrations; NaCl (100, 150, and 200 mM), MgCl2 (0.5, 1 and 2 mM), and FeCl3 […]. The serial dilutions of peptides were incubated with tested strains for MIC testing. The MICs were observed after 20–24 h of incubation at 37°C.

sheep red blood cells = assay: Hemolytic activity assay; format: cell-based; conditions: at concentrations as high as 200 μg/mL
Protocol: Sheep erythrocytes were employed to assess the hemolytic activity of BP203 and MAP-0403 J-2, following previously described with some modifications. Briefly, defibrinated sheep red blood cells (sRBCs) were centrifuged at 1,000× g, 4°C for 10 min. The packed sRBCs underwent three times washes with phosphate buffer saline (PBS), at pH 7.4, and were subsequently suspended in PBS to achieve a concentration of 4% (v/v). […] Following an incubation period of 1 h at 37°C, the mixtures were centrifuged at room temperature, 1,000× g for 10 min. The supernatants were collected and transferred to a 96-well microplate. Next, absorbance measurement was taken at 540 nm using a microplate reader (Tecan Group, Zurich, Switzerland). Blank, negative and positive controls were established using sRBCs incubated with PBS alone, BSA solution, and 0.1% Triton X-100, respectively. […] The percentage of hemolytic activity was calculated with the following equation: Hemolysis (%) = {(Sample absorbance—PBS absorbance)/(0.1% Triton X-100 absorbance—PBS absorbance)} × 100.

[4] = system: MRC-5 (CCL-171) normal lung fibroblast cells; assay: Cytotoxicity assay using MTT; format: cell-based, human
Protocol: MRC-5 (CCL-171) cell line, a representative of normal lung fibroblast cells, was used to investigate the cytotoxic effects of two AMPs, BP203 and MAP-0403 J-2. The cells were grown in Dulbecco’s Modified Eagle Medium (DMEM, Cytiva Life Sciences, Marlborough, MA, USA), supplemented with 10% fetal bovine serum (FBS), 1% penicillin (10,000 U/mL) and streptomycin (10,000 μg/mL) (Gibco, Waltham, MA, USA). 2×10^4 cells were seeded into each well of a 96-well plate and allowed to adhere for 24 h. Then, these cells were subjected to exposure to a medium containing a prepared two-fold serial dilution of BP203 or MAP-0403 J-2. […] 3-(4,5-Dimethylthiazol-2-yl)-2,5-Diphenyltetrazolium Bromide (MTT) was introduced into each well to achieve a concentration of 0.5 mg/mL followed by 4 h. incubation. Subsequently, formazan crystals were dissolved through the addition of 100 μL of a solubilizing solution composed of 10% SDS in 0.1 N HCl and the developed color was measured using a microtiter plate reader at an optical density (OD) of 570 nm. Cell viability was calculated as follows: (ODsample/ODcontrol) × 100.

## KWLRRPWRRWR-NH2 [MAP-0403 J-2]
[1]; E. coli ATCC 25922
  MBC: 16 mg/L
  MIC: 16 mg/L
[1]; EC-01
  MBC: 32 mg/L
  MIC: 16 mg/L
[1]; EC-02
  MBC: 32 mg/L
  MIC: 32 mg/L
[1]; EC-03
  MBC: 16 mg/L
  MIC: 8 mg/L
[1]; EC-04
  MBC: 8 mg/L
  MIC: 8 mg/L
[1]; EC-05
  MBC: 64 mg/L
  MIC: 32 mg/L
[1]; EC-06
  MBC: 32 mg/L
  MIC: 32 mg/L
[1]; EC-07
  MBC: 32 mg/L
  MIC: 32 mg/L
[1]; EC-08
  MBC: 64 mg/L
  MIC: 32 mg/L
[1]; EC-09
  MBC: 32 mg/L
  MIC: 8 mg/L
[1]; EC-10
  MBC: 64 mg/L
  MIC: 32 mg/L
[1]; range over ten isolates
  MICs against colistin-resistant E. coli clinical isolates: 8 to 32 µg/mL
[2]; K. pneumoniae ATCC BAA-1706
  MBC: 16 mg/L
  MIC: 16 mg/L
[2]; KP-01
  MBC: >512 mg/L
  MIC: >512 mg/L
[2]; KP-02
  MBC: 256 mg/L
  MIC: 128 mg/L
[2]; KP-03
  MBC: >512 mg/L
  MIC: >512 mg/L
[2]; KP-04
  MBC: >512 mg/L
  MIC: >512 mg/L
[2]; KP-05
  MBC: 512 mg/L
  MIC: 256 mg/L
[2]; KP-06
  MBC: >512 mg/L
  MIC: >512 mg/L
[2]; KP-07
  MBC: >512 mg/L
  MIC: >512 mg/L
[2]; KP-08
  MBC: >512 mg/L
  MIC: >512 mg/L
[2]; KP-09
  MBC: >512 mg/L
  MIC: >512 mg/L
[2]; KP-10
  MBC: >512 mg/L
  MIC: >512 mg/L
[2]; range over ten isolates
  MIC against colistin-resistant K. pneumoniae clinical isolates: ≥ 512 mg/L
[3]; 0% FBS (control)
  MIC after FBS treatment: 16 mg/L
[3]; 25% fetal bovine serum, 1 h at 37 °C
  MIC after FBS treatment: 16 mg/L
[3]; 50% fetal bovine serum, 1 h at 37 °C
  MIC after FBS treatment: 16 mg/L
[3]; pH 2, 100 mM glycine-HCl buffer, 1 h at 37 °C, neutralized
  MIC after pH treatment: 16 μg/mL
[3]; pH 4, 100 mM sodium acetate buffer, 1 h at 37 °C, neutralized
  MIC after pH treatment: 16 μg/mL
[3]; pH 6, 100 mM sodium phosphate buffer, 1 h at 37 °C, neutralized
  MIC after pH treatment: 16 μg/mL
[3]; pH 7 (control)
  MIC after pH treatment: 16 μg/mL
[3]; pH 8, 100 mM Tris-HCl buffer, 1 h at 37 °C, neutralized
  MIC after pH treatment: 16 μg/mL
[3]; pH 10, 100 mM glycine-NaOH buffer, 1 h at 37 °C, neutralized
  MIC after pH treatment: 16 μg/mL
[3]; peptide incubated 1 h at 25 °C (control)
  MIC after temperature treatment: 16 mg/L
[3]; peptide incubated 1 h at 37 °C
  MIC after temperature treatment: 16 mg/L
[3]; peptide incubated 1 h at 50 °C
  MIC after temperature treatment: 16 mg/L
[3]; peptide incubated 1 h at 70 °C
  MIC after temperature treatment: 16 mg/L
[3]; peptide incubated 1 h at 90 °C
  MIC after temperature treatment: 16 mg/L
Sheep red blood cells
  Hemolysis (in words): negligible hemolysis; also recorded: no hemolytic activity
[4]; 200 μg/mL, 24 h
  Cell viability at highest concentration: 73.43%
[4]; 24 h exposure
  IC50: > 200 mg/L
